PubChem BioAssay (NCI)
“And” between values parts separate entries of the source, which are not always exact repeats. Equal values may be shown once.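 Each compound was tested at five concentrations against cells in 96-well plates for 48 hours. GI50 marks 50% less growth. TGI marks complete inhibition of growth.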

Columns and labels:
Experiment in all cases: growth of human tumour cells (NCI), 48 h
[1] = test system: MOLT-4 leukemia
[2] = test system: TK-10 renal
[3] = test system: MCF7 breast
[4] = test system: A549 NSCLC
[5] = test system: HCC-2998 colon
[6] = test system: SF-539 CNS
[7] = test system: OVCAR-4 ovarian
[8] = test system: SK-OV-3 ovarian
[9] = test system: NCI/ADR-RES ovarian
[10] = test system: MDA-MB-231 breast
[11] = test system: A498 renal
[12] = test system: CAKI-1 renal
[13] = test system: HS 578T breast
[14] = test system: NCI-H23 lung
[15] = test system: OVCAR-5 ovarian
[16] = test system: RPMI-8226 leukemia
[17] = test system: UO-31 renal
[18] = test system: NCI-H226 lung
[19] = test system: T-47D breast
[20] = test system: SN12C renal
[21] = test system: SF-268 CNS
[22] = test system: SNB-19 CNS
[23] = test system: HL-60(TB) leukemia
[24] = test system: COLO 205 colon
[25] = test system: RXF 393 renal
[26] = test system: 786-0 renal
[27] = test system: MALME-3M melanoma
[28] = test system: NCI-H460 lung
[29] = test system: ACHN renal
[30] = test system: CCRF-CEM leukemia
[31] = test system: OVCAR-8 ovarian
[32] = test system: DU-145 prostate
[33] = test system: HOP-92 NSCLC
[34] = test system: SF-295 CNS
[35] = test system: HCT-15 colon
[36] = test system: BT-549 breast
[37] = test system: EKVX NSCLC
[38] = test system: PC-3 prostate
[39] = test system: U251 CNS
[40] = test system: HT29 colon
[41] = test system: IGROV1 ovarian
[42] = test system: SNB-75 CNS
[43] = test system: K-562 leukemia
[44] = test system: HOP-62 NSCLC
[45] = test system: LOX IMVI melanoma
[46] = test system: SK-MEL-5 melanoma
[47] = test system: M14 melanoma
[48] = test system: SK-MEL-28 melanoma
[49] = test system: SW-620 colon
[50] = test system: SR leukemia
[51] = test system: UACC-62 melanoma
[52] = test system: OVCAR-3 ovarian
[53] = test system: HCT-116 colon
[54] = test system: KM12 colon
[55] = test system: UACC-257 melanoma
[56] = test system: MDA-MB-435
[57] = test system: NCI-H522 lung
[58] = test system: SK-MEL-2 melanoma

COc1ccc2c(c1)NC(=O)CN2c1nc(NC2CC2)nc2ccccc12
GI50 [1]: 0.00255 µM
TGI [1]: > 100 µM
TGI [2]: 14.9 µM
GI50 [3]: 0.000386 µM
TGI [3]: 14.7 µM
GI50 [4]: 0.00128 µM
TGI [4]: > 100 µM
GI50 [5]: 0.00106 µM
TGI [5]: 1.42 µM
GI50 [6]: 0.00232 µM
TGI [6]: 0.00804 µM
TGI [7]: > 100 µM
GI50 [8]: 0.00182 µM
GI50 [9]: 0.000651 µM
TGI [9]: 0.00677 µM
GI50 [10]: 0.000858 µM
TGI [10]: > 100 µM
GI50 [11]: 0.00185 µM
TGI [12]: 17.9 µM
GI50 [13]: 0.00359 µM
TGI [13]: 25 µM
GI50 [14]: 0.00112 µM
TGI [14]: 16.2 µM
TGI [15]: > 100 µM
GI50 [16]: 0.00182 µM
TGI [16]: 16.4 µM
GI50 [17]: 0.031 µM
TGI [17]: 10.2 µM
TGI [18]: > 100 µM
GI50 [19]: 0.23 µM
TGI [19]: 7.13 µM
GI50 [20]: 0.00491 µM
TGI [20]: > 100 µM
GI50 [21]: 0.00204 µM
TGI [21]: 14.4 µM
GI50 [22]: 0.00154 µM
TGI [22]: 24.5 µM
GI50 [23]: 0.000503 µM
TGI [23]: 0.00313 µM
GI50 [24]: 0.000395 µM
TGI [24]: 0.00241 µM
GI50 [25]: 0.00178 µM
GI50 [26]: 0.00905 µM
TGI [26]: 18.6 µM
GI50 [27]: 2.01 µM
TGI [27]: 84.7 µM
GI50 [28]: 0.000405 µM
TGI [28]: > 100 µM
TGI [29]: > 100 µM
GI50 [30]: 0.000385 µM
TGI [30]: > 100 µM
GI50 [31]: 0.00234 µM
TGI [31]: 46.9 µM
GI50 [32]: 0.000452 µM
TGI [32]: 2.83 µM
GI50 [33]: 2.66 µM
TGI [33]: 17.5 µM
GI50 [34]: 0.00211 µM
TGI [34]: 0.00611 µM and 0.0191 µM
GI50 [35]: 0.000556 µM
TGI [35]: > 100 µM
GI50 [36]: 0.00423 µM
TGI [36]: 3.11 µM
TGI [37]: 77.5 µM
GI50 [38]: 0.000563 µM
TGI [38]: > 100 µM
GI50 [39]: 0.00106 µM
TGI [39]: 18.4 µM
GI50 [40]: 0.000347 µM
TGI [41]: 6.43 µM
GI50 [42]: 0.00199 µM
TGI [42]: 18.7 µM
GI50 [43]: 0.000336 µM
TGI [43]: > 100 µM
GI50 [44]: 0.00433 µM
TGI [44]: 10.5 µM
GI50 [45]: 0.000901 µM
TGI [45]: 55.5 µM
GI50 [46]: 0.000552 µM
GI50 [47]: 0.000367 µM
TGI [47]: > 100 µM
GI50 [48]: 0.847 µM
TGI [48]: > 100 µM
GI50 [49]: 0.000383 µM
TGI [49]: > 100 µM
GI50 [50]: 0.000274 µM
GI50 [51]: 0.000876 µM
TGI [51]: 13.2 µM
GI50 [52]: 0.000368 µM
TGI [52]: 0.011 µM
GI50 [53]: 0.000424 µM
TGI [53]: 13.3 µM
GI50 [54]: 0.000396 µM
TGI [54]: > 100 µM

c1ccc(C(NC2CCCCC2NCCNC2CCCCC2NC(c2ccccc2)(c2ccccc2)c2ccccc2)(c2ccccc2)c2ccccc2)cc1 (stereo not drawn)
TGI [1]: > 100 µM
TGI [2]: > 100 µM
TGI [3]: 42.1 µM
TGI [55]: > 100 µM
TGI [4]: > 100 µM
TGI [6]: > 100 µM
TGI [7]: > 100 µM
TGI [8]: > 100 µM
TGI [10]: > 100 µM
TGI [11]: 65.5 µM
TGI [12]: > 100 µM
TGI [13]: 45.3 µM
TGI [14]: > 100 µM
TGI [15]: > 100 µM
TGI [16]: > 100 µM
TGI [17]: 71.2 µM
TGI [19]: > 100 µM
TGI [20]: > 100 µM
TGI [21]: > 100 µM
TGI [22]: > 100 µM
TGI [24]: > 100 µM
TGI [28]: > 100 µM
TGI [56]: 32.7 µM
TGI [57]: 39.5 µM
TGI [29]: > 100 µM
TGI [30]: > 100 µM
TGI [31]: > 100 µM
TGI [32]: > 100 µM
TGI [33]: 33.7 µM
TGI [34]: > 100 µM
TGI [35]: > 100 µM
TGI [36]: 54.1 µM
TGI [37]: > 100 µM
TGI [38]: > 100 µM
TGI [39]: 33.9 µM
TGI [40]: > 100 µM
TGI [41]: > 100 µM
TGI [43]: > 100 µM
TGI [44]: > 100 µM
TGI [45]: 47.7 µM
TGI [46]: > 100 µM
TGI [48]: > 100 µM
TGI [49]: > 100 µM
TGI [50]: > 100 µM
TGI [51]: > 100 µM
TGI [52]: > 100 µM
TGI [58]: > 100 µM
TGI [53]: 53.6 µM
TGI [54]: > 100 µM
